Series [1] in a line: Intrinsic clearance in human cryopreserved hepatocytes assessed per 10^6 cells at 0.5 uM measured upto 60 mins by LCMS analysis. Type of series: ADME, cell-based, Hepatocyte. The conditions noted are these: read-out: CLH.
Series [2] deals with GTPase KRas (Homo sapiens, UniProt P01116). The experiment in a line: Inhibition of KRAS in human MIAPaca2 cells assessed as decrease in EGF-stimulated ERK1/2 phosphorylation preincubated for 2 hrs followed by EGF stimulation. Type of series: cell-based.
In series [3] the test system is MIA PaCa-2. In words: Antiproliferative activity against human MIAPaCa2 cells harboring KRAS G12C point mutant assessed as cell growth inhibition after 72 hrs by Celltiter-Glo luminescent cell viability assay. Type of series: functional, cell-based. The conditions noted are these: MIA PaCa-2, 72 h.
Series [4] relates to A549. The experiment in a line: Antiproliferative activity against human A549 cells harboring KRAS G12S point mutant assessed as cell growth inhibition after 72 hrs by Celltiter-Glo luminescent cell viability assay. Type of series: functional, cell-based. The conditions noted are these: A549, 72 h. (Cellular ATP, detected with luciferase, serves as a proxy for viable cell number.)

Series [5] is described as follows: Intrinsic clearance in mouse cryopreserved hepatocytes assessed per 10^6 cells at 0.5 uM measured upto 60 mins by LCMS analysis. Type of series: ADME, cell-based, Hepatocyte. The conditions noted are these: read-out: CLH.
The nature of series [6]: Permeability of compound across apical to basolateral membrane in MDCK2 cells at 10 to 50 uM incubated for 2 hrs under shaking condition by LC-MS/MS analysis. Type of series: ADME, cell-based, Canis lupus familiaris, MDCK-II. The note with it: dog, MDCK; read-out: permeability.
Series [7] in a line: Solubility of compound in FaSSIF incubated for 48 to 72 hrs under shaking conditions by LCMS analysis. Type of series: physicochemical.
Series [8] has as its target GTPase KRas (Homo sapiens, UniProt P01116, C118A/G12C). In words: Inhibition of GDP bound recombinant human His-tagged KRAS G12C/C118A mutant (1 to 169 residues) assessed as reduction in SOS1-mediated GDP/GTP nucleotide exchange by measuring the disruption between GDP-bound recombinant His-tagged KRAS G12C/C118A (1 to 169 residues) and Ras binding domain of GST-tagged c-RAF (1 to 149 residues) preincubated for 5 mins followed by SOS1 and GTP addition and further incubated for 30 mins by AlphaLISA assay. On the technique in general: In Alpha technology, singlet oxygen from a donor bead excites a nearby acceptor bead.

Series [9] is described as follows: Oral bioavailability in BALB/c mouse at 10 mg/kg. The conditions noted are these: in vivo. Type of series: ADME, organism-based.
The nature of series [10]: Volume of distribution at steady state in BALB/c mouse at 1 mg/kg, iv or 10 mg/kg, po. Type of series: ADME, organism-based. The note with it: in vivo, read-out: Vdss.
Series [11] is described as follows: Clearance in BALB/c mouse at 1 mg/kg, iv or 10 mg/kg, po. Type of series: ADME, organism-based. The note with it: in vivo.
Series [12] can be described thus: Half life in BALB/c mouse at 1 mg/kg, iv or 10 mg/kg, po. Type of series: ADME, organism-based. The conditions noted are these: in vivo.
The nature of series [13]: Solubility of compound in PBS buffer at pH 7.4 incubated for 48 to 72 hrs under shaking conditions by LCMS analysis. Type of series: physicochemical.

≈ marks a conversion by molar mass, not a printed value.

For `C=CC(=O)N1CCN(c2nc(=O)n(-c3ccccc3C(C)C)c3cc(-c4ccccc4Cl)c(Cl)cc23)[C@@H](C)C1`, the hepatocyte CLint at 0.5 µM turned out to be 317 µL/min/1e6 cells in series [1] and 397 µL/min/1e6 cells in [5]. Further, the IC50 in [2] stood at 220 nM; in series [3], 18 nM; in series [4], 7400 nM. Also, the Papp A→B at 2 h, up to 50 µM in [6] was determined as 6 ×10⁻⁶ cm/s. In series [7], the solubility (thermodynamic) amounted to 255 µM (≈ 143 µg/mL).

As for `C=CC(=O)N1CCN(c2nnc(-c3ccccc3)c3cc(-c4c(O)cccc4F)c(Cl)cc23)CC1`, the IC50 was found to be 58000 nM in [2] and 20100 nM in series [8].

For the compound `C=CC(=O)N1CCN(c2nc(=O)n(-c3ccccc3C(C)C)c3cc(-c4c(O)cccc4F)c(Cl)cc23)[C@@H](C)C1`, the hepatocyte CLint at 0.5 µM in [1] was 113 µL/min/1e6 cells; in [5], 263 µL/min/1e6 cells. For the same compound, the results for the IC50 in series [2], in series [3] and in [4] were 28 nM, 14 nM and 15300 nM, respectively. Moreover, in series [6], the Papp A→B at 2 h, up to 50 µM was determined as 1 ×10⁻⁶ cm/s. For the same compound, the thermodynamic solubility in series [7] stood at 226 µM (≈ 127 µg/mL).

On to `C=CC(=O)N1CCN(c2nc(=O)n(-c3ccccc3C(C)(C)C)c3nc(-c4c(O)cccc4F)c(Cl)cc23)[C@@H](C)C1`, for which the IC50 in series [2] was 51 nM.

`C=CC(=O)N1CCN(c2nnc(-c3ccccc3CC)c3cc(-c4c(O)cccc4F)c(Cl)cc23)CC1`: the IC50 was 2580 nM in series [2] and 903 nM in [8].

As for `C=CC(=O)N1CCN(c2nc(=O)n(-c3ccccc3C(C)C)c3cc(-c4ccccc4F)c(Cl)cc23)[C@@H](C)C1`, the results for the hepatocyte CLint at 0.5 µM in [1] and in [5] were 166 µL/min/1e6 cells and 356 µL/min/1e6 cells, respectively. In addition, the IC50 in series [3] was found to be 6 nM; in [4], 5800 nM. Also, the bioavailability in [9] worked out at 12%. For the same compound, in series [10], the Vd was determined as 1.4 L/kg. This compound also had a clearance in series [11] of 26.7 mL/min/kg. The Papp A→B at 2 h, up to 50 µM in series [6] amounted to 10 ×10⁻⁶ cm/s. Besides, in [12], the half-life was 54 min. In addition, the thermodynamic solubility in [7] was 260 µM (≈ 142 µg/mL).

Regarding `C=CC(=O)N1CCN(c2nnc(-c3ccccc3Cl)c3cc(-c4c(O)cccc4F)c(Cl)cc23)CC1`, the IC50 is 3530 nM in series [2] and 3520 nM in series [8].

For `C=CC(=O)N1CCN(c2nc(=O)n(-c3ccccc3C(C)C)c3nc(-c4ccccc4F)c(Cl)cc23)[C@@H](C)C1`, the hepatocyte CLint at 0.5 µM in series [1] stood at 135 µL/min/1e6 cells; in series [5], 236 µL/min/1e6 cells. The results for the IC50 in series [3] and in series [4] were 5 nM and 7900 nM, respectively. In addition, the solubility (thermodynamic) in series [13] was 11 µM (≈ 6.01 µg/mL); in series [7] it was 224 µM (≈ 122 µg/mL). Moreover, the bioavailability in series [9] was found to be 9%. The Vd in series [10] is 2.3 L/kg. The clearance in [11] was 60 mL/min/kg. Also, in series [6], the Papp A→B at 2 h, up to 50 µM was determined as 20 ×10⁻⁶ cm/s. Further, the half-life in series [12] was 36 min.

Regarding `C=CC(=O)N1CCN(c2nc(=O)n(-c3ccnn3C(C)C)c3nc(-c4c(O)cccc4F)c(Cl)cc23)[C@@H](C)C1`, the IC50 in series [2] turned out to be 218 nM.

As for `C=CC(=O)N1CCN(c2nc(=O)n(-c3ccccc3C(C)C)c3cc(-c4cc(O)cc5ccccc45)c(Cl)cc23)CC1`, the IC50 was determined as 17 nM in [3] and 2700 nM in series [4]. Further, in series [7], the thermodynamic solubility turned out to be 71 µM (≈ 41.1 µg/mL).

For `C=CC(=O)N1CCN(c2nc(=O)n(-c3c(C)cccc3C)c3nc(-c4c(O)cccc4F)c(Cl)cc23)[C@@H](C)C1`, the IC50 in series [2] stood at 199 nM.

For the compound `C=CC(=O)N1CCN(c2ncnc3c(F)c(-c4c(O)cccc4F)c(Cl)cc23)CC1`, the figures for the IC50 in [2] and in series [8] were 831 nM and 939 nM, respectively.

On to `C=CC(=O)N1CCN(c2nc(=O)n(-c3ncccc3C(C)C)c3nc(-c4c(O)cccc4F)c(Cl)cc23)[C@@H](C)C1`, for which, in series [2], the half-inhibitory concentration (IC50) came out at 53 nM.

Broadly, the IC50 is the concentration at which inhibition is half-maximal. What is called thermodynamic solubility is the concentration in solution at equilibrium with solid. As a reminder, the bioavailability is dose-corrected exposure relative to a reference, in per cent. A higher bioavailability goes with good availability. One may read the half-life as the time needed for the level to fall by half in the phase considered.

The values above are taken from ChEMBL document CHEMBL4354832, “Discovery of a Covalent Inhibitor of KRASG12C (AMG 510) for the Treatment of Solid Tumors” (J Med Chem, 2020).
